Consider 1 molecule from patent US20040086901A1, “Database for analyzing gene function and method of analyzing gene function by dspa” (priority 2000, published 2004).

Non-standard residues stand in square brackets, D forms with d. Residues, ends and D or L forms follow the SMILES beside them. Nle = CCCC[C@H](N)C(=O)O

Holding throughout (type): cell-based, mouse
Test [1] concerns NIH3T3 cells overexpressing m-calpain. The experiment in a line: MTT cell viability, m-calpain overexpressing cells vs parental line. Particulars: m-calpain high-expressing cells / parental cell line, 3 to 4 days. An outline of the steps: (§1)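 NIH3T3 high expressers vs parental; 2-fold serial dilution of drugs (DMSO stocks), 9 points; 10% CS-DMEM; 3–4 d culture; MTT 4 h 37 °C, stop with 0.04N HCl/isopropanol; A574/655. Readout is log(IC40 ratio).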

Test [2] deals with NIH3T3 cells overexpressing JNK-DN. The test is described as follows: MTT cell viability, JNK-DN overexpressing cells vs parental line. Particulars: JNK-DN high-expressing cells / parental cell line, 3 to 4 days. The procedure, abridged: (§2)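 Stable NIH3T3 transfectants (cDNA in pRc-CMV-type vector, G-418-selected, high expressers picked by Western blot) and parental cells were seeded at 1×10^5 cells/ml into twofold serial drug dilutions and grown 3–4 days. MTT formazan was read at 574/655 nm, and log ratios of IC40 values were derived.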

The subject of test [3] is NIH3T3 cells overexpressing caspase-3. The test is described as follows: MTT cell viability, caspase-3 overexpressing cells vs parental line. Particulars: caspase-3 high-expressing cells / parental cell line, 3 to 4 days. An outline of the steps:
as §1

The test system of test [4] is NIH3T3 cells overexpressing DAN. The experiment in a line: MTT cell viability, DAN overexpressing cells vs parental line. The note with it: DAN high-expressing cells / parental cell line, 3 to 4 days. An outline of the steps: as §2
Test [5] concerns NIH3T3 cells, TPA (PKC downreg). The test is described as follows: MTT cell viability, TPA (PKC downreg) cells vs parental line. The note with it: 3 to 4 days.
Test [6] concerns NIH3T3 cells overexpressing HSP9O. The test is described as follows: MTT cell viability, HSP9O overexpressing cells vs parental line. The note with it: HSP9O high-expressing cells / parental cell line, 3 to 4 days. An outline of the steps:
as §2

In test [7] the test system is NIH3T3 cells overexpressing erbB2. The experiment in a line: MTT cell viability, erbB2 overexpressing cells vs parental line. The note with it: erbB2 high-expressing cells / parental cell line, 3 to 4 days. An outline of the steps:
as §2

Test [8] relates to NIH3T3 cells overexpressing p16/INK4A. The experiment in a line: MTT cell viability, p16/INK4A overexpressing cells vs parental line. The note with it: p16/INK4A high-expressing cells / parental cell line, 3 to 4 days. The procedure, abridged: as §2
The test system of test [9] is NIH3T3 cells overexpressing Gluco-corticoid-R. The experiment in a line: MTT cell viability, Gluco-corticoid-R overexpressing cells vs parental line. Particulars: Gluco-corticoid-R high-expressing cells / parental cell line, 3 to 4 days. The procedure, abridged:
as §1

Test [10] concerns NIH3T3 cells overexpressing PKCalpha-KN. The experiment in a line: MTT cell viability, PKCalpha-KN overexpressing cells vs parental line. The note with it: 3 to 4 days. The procedure, abridged: as §1
For test [11], the system named is NIH3T3 cells overexpressing Ha-ras. The experiment in a line: MTT cell viability, drug sensitivity of Ha-ras overexpressing cells vs parental line. Particulars: Ha-ras high-expressing cells / parental cell line, 3 to 4 days. The procedure, abridged:
as §1

Test [12] deals with NIH3T3 cells overexpressing CP-antisense. The experiment in a line: MTT cell viability, CP-antisense cells vs parental line. Particulars: 3 to 4 days. An outline of the steps: as §2
Test [13] deals with NIH3T3 cells overexpressing PDGF-R. The experiment in a line: MTT cell viability, PDGF-R overexpressing cells vs parental line. Particulars: PDGF-R high-expressing cells / parental cell line, 3 to 4 days. The procedure, abridged: as §2
The subject of test [14] is NIH3T3 cells overexpressing HSP4O. The experiment in a line: MTT cell viability, HSP4O overexpressing cells vs parental line. The note with it: HSP4O high-expressing cells / parental cell line, 3 to 4 days. The procedure, abridged:
as §2

Test [15] concerns NIH3T3 cells overexpressing RhoA. The experiment in a line: MTT cell viability, RhoA overexpressing cells vs parental line. The note with it: RhoA high-expressing cells / parental cell line, 3 to 4 days. An outline of the steps: as §2
In test [16] the test system is NIH3T3 cells overexpressing CaMKIIa. The experiment in a line: MTT cell viability, CaMKIIa overexpressing cells vs parental line. The note with it: CaMKIIa high-expressing cells / parental cell line, 3 to 4 days. The procedure, abridged: as §1
The test system of test [17] is NIH3T3 cells overexpressing cAMP-PK-CS. The experiment in a line: MTT cell viability, cAMP-PK-CS overexpressing cells vs parental line. The note with it: cAMP-PK-CS high-expressing cells / parental cell line, 3 to 4 days. The procedure, abridged:
as §1

Test [18] deals with NIH3T3 cells overexpressing Regucalcin. The experiment in a line: MTT cell viability, Regucalcin overexpressing cells vs parental line. The note with it: Regucalcin high-expressing cells / parental cell line, 3 to 4 days. The procedure, abridged:
as §2

Test [19] concerns NIH3T3 cells overexpressing ERK-DN. The experiment in a line: MTT cell viability, ERK-DN overexpressing cells vs parental line. Particulars: ERK-DN high-expressing cells / parental cell line, 3 to 4 days. The procedure, abridged:
as §1

Test [20] relates to NIH3T3 cells overexpressing v-src. The test is described as follows: MTT cell viability, v-src overexpressing cells vs parental line. Particulars: v-src high-expressing cells / parental cell line, 3 to 4 days. The procedure, abridged:
as §2

On to `CCCC[C@@H](C=O)NC(=O)[C@H](CC(C)C)NC(=O)[C@H](CC(C)C)NC(C)=O` [ALLN] (Ac-Leu-Leu-[Nle]-aldehyde), for which the “logarithmic value of ratio of IC40 values” in test [1] is on record as 0.00; in test [2], −0.24; in test [3], −0.09; in [4], 0.00; in test [5], −0.09; in [6], 0.16. Further, the “logarithmic value of ratio of IC40 values” in test [7] is given as −0.05; in [8], 0.09; in test [9], 0.12; in [10] (PKCalpha-KN (first of two lines) high-expressing cells / parental cell line) it was 0.11; in test [10] (PKCalpha-KN (second of two lines) high-expressing cells / parental cell line), −0.01; in [11] it was 0.15. Besides, the “logarithmic value of ratio of IC40 values” in test [12] was determined as 0.00; in [13] it was 0.22; in test [14] it was 0.18; in test [15] it was 0.00; in [16], 0.00; in test [17] it was 0.20. Moreover, the “logarithmic value of ratio of IC40 values” stood at 0.00 in test [18], 0.00 in test [19] and 0.10 in [20].
